Measurements published in patent US8822541B2, “Use of targeted nitroxide agents in mitigating or treating radiation injury” (University of Pittsburgh—Of the Commonwealth System of …, priority 2008, dated 2014).
“Also recorded” adds a separate entry of the source.

Assays:
[1] = tested on: KM101 human marrow stromal cells; test: Irradiation survival of KM101 marrow stromal cells; format: cell-based; details: 10 μM; for n (shoulder): control 1.1
Description: KM101 cells were incubated in media alone or in JP4-039 (10 μM) for one hour before irradiation or 24 hours after irradiation. The cells were irradiated to doses ranging from 0 to 6 Gy and plated in 4 well plates. Seven days later the cells were stained with crystal violet and colonies of greater than 50 cells counted. Cells incubated in JP4-039 either before or after irradiation were more radioresistant as shown by an increased shoulder of n=2.3±0.2 or 2.2±0.2, respectively compared to n of 1.1±0.1 for the KM101 cells (p=0.0309 or 0.0386, respectively).

[2] = tested on: MEF cells from Ercc1−/− mice; test: Senescence, DNA damage, apoptosis and proliferation in Ercc1−/− MEF cells under oxidative stress; format: cell-based, mouse; details: for γ-H2AX immunostaining: 1 μM, 48 hours; for γ-H2AX immunostaining / level of p16: 20% oxygen; for level of p16: 1 uM, 48 hrs
Description: Graphs showing weight over time of treated, untreated and control animals are shown in FIG. 36A-B. To assess the impact of XJB-5-131 at a cellular level, a number of experiments were carried out using mouse embryonic fibroblasts (“MEF”) cells harvested from Ercc1^−/− mouse embryos.
To test the protective activity of JP4-039, cultures of primary MEFs were prepared from Ercc1^−/− mouse embryos and grown under 20% oxygen (ambient air), which creates oxidative stress in these cells that are hypersensitive to reactive oxygen species. The cells were then either treated with a concentration of 1 uM XJB-5-131, JP4-039, JED-E71-37 or JED-E71-58, or left untreated (media), and then after 48 hrs the level of p16, a marker of irreversible cellular senescence, was measured by immunofluorescence staining.
To evaluate the protective activities of JED-E71-37 and JED-E71-58, primary MEF cells were prepared from Ercc1^−/− mice and grown under conditions of oxidative stress (ambient air, 20% oxygen). The cells were then either untreated or treated with 1 μM JED-E71-37 or JED-E71-58 for a period of 48 hours.
Next, the abilities of these two agents, as well as XJB-5-131 and JP4-039, each at a concentration of 1 μM, were tested for their ability to prevent oxidation-induced DNA double-strand breaks in cell cultures prepared, and oxidatively stressed, as in the preceding paragraph. Treated as well as untreated cells were, after 48 hours of treatment, immunostained for γ-H2AX, a marker of DNA double-strand breaks as well as cellular senescence.

[3] = tested on: MEF cells from Ercc1−/− mouse embryos; test: Toxicity of JP4-039 in Ercc1−/− MEF cultures; format: cell-based; details: up to 10 μM
Description: To assess the therapeutic potential of JP4-039, tests for safety and protective activity were performed. FIGS. 35 and 36 show the results of tests to evaluate whether varying concentrations of JP4-039 produce toxic effects after 48 hours in cultures of MEF cells prepared from Ercc1^−/− or wild-type mouse embryos, respectively.

rat ileal mucosa = test: Peroxidation of phospholipids in intestinal mucosa after hemorrhagic shock; format: in vivo; details: 10 μM intraluminal, 2 h HS
Description: Assay for peroxidation of phospholipids. Gut mucosal samples were homogenized. Lipids were extracted from homogenates using the Folch procedure, see M. Lees and G. H. Sloan-Stanley, A simple method for isolation and purification of total lipids from animal tissue, J. BIOL. CHEM. 226:497-509 (1957), and resolved by 2D HPTLC (High Performance Thin Layer Chromatography) as previously described, see Kagan, V. E. et al., A role for oxidative stress in apoptosis: Oxidation and externalization of phosphatidylserine is required for macrophage clearance of cell undergoing Fas-mediated apoptosis, J Immunol, 2002, 169:487-489. Spots of phospholipids'were scraped from HPTLC plates and phospholipids were extracted from silica. Lipid phosphorus was determined by a micro-method, see Bottcher, C. J. F. et al., A rapid and sensitive sub-micro phosphorus determination, Anal Chim Acta. 1961, 24: 203-204.
Oxidized phospholipids were hydrolyzed by pancreatic phospholipase A2 (2 U/μl) in 25 mM phosphate buffer containing 1 mM CaCl2, 0.5 mM EDTA and 0.5 mM sodium dodecyl sulfate (SDS) (pH 8.0, at room temperature for 30 min). Fatty acid hydroperoxides formed were determined by fluorescence HPLC of resorufin stoichiometrically formed during their microperoxidase 11-catalized reduction in presence of Amplex Red (for 40 min at 4° C.) (8). Fluorescence HPLC (Eclipse XDB-C18 column, 5 μm, 150×4.6 mm, mobile phase was composed of 25 mM disodium phosphate buffer (pH 7.0)/methanol (60:40 v/v); excitation wavelength 560 nm, emission wavelength 590 nm) was performed on a Shimadzu LC-100AT HPLC system equipped with fluorescence detector (RF-10Axl) and autosampler (SIL-10AD).
In the subsequent series of in vivo studies, the affect of intraluminal XJB-5-131 on hemorrhage-induced peroxidation of phospholipids in intestinal mucosa was examined. […] In a preferred embodiment, 0.3 mL of test solution filled the lumen of each ileal compartment.
After two hours of HS, samples of ileal mucosa from the gut sacs filled with the vehicle and XJB-5-131 were obtained and compared with ileal mucosa of normal MECs. […]

Ercc1−/Δ mice = test: Signs of aging in progeroid Ercc1−/Δ mice; format: in vivo, mouse; details: 2 mg/kg ip three times per week
Description: To assess the effectiveness of XJB-5-131 in inhibiting degeneration and/or signs of aging, the compound was administered, over an 18-21 week period, progeroid
Ercc1^−/Δ mice, at a dose of 2 mg/kg in sunflower oil carrier (to promote solubility) administered intraperitoneally three times per week (FIG. 32). Sunflower seed oil was administered to twin Ercc1^−/Δ mice according to the same schedule as a control. The treated and control mice were monitored twice a week for weight and symptom/sign development.
FIG. 33 presents a summary table showing the results of the treatment with XJB-5-131 (“XJB” in this Figure), relative to control (sunflower seed oil) after treatment from 5 wks of life until death. The numbers indicate the average age at onset of each age-related symptom for mice treated with XJB-5-131 or vehicle only (oil) (n=5 mice per group). […] Of note, all of the signs of neurodegeneration, including dystonia, trembling, ataxia, wasting and urinary incontinence were delayed in the treated animals, providing strong evidence that XJB-5-131 protects neurons against degenerative changes caused by oxidative stress.
To assess the ability of XJB-5-131 to inhibit deterioration of intervertebral discs (an index of degenerative disease of the vertebra), the level of glycosaminoglycan in the discs in treated and control mice were measured, and the results are shown in FIG. 34. The intervertebral discs of treated mice contained approximately 30 percent more glycosaminoglycan relative to control mice, indicating inhibition of disc degeneration.

Row | Compound | n (shoulder) ([1]; 24 hours after irradiation) | Do ([1]; before or after irradiation) | n (shoulder) ([1]; one hour before irradiation) | γ-H2AX immunostaining [2] | level of p16 [2] | cellular proliferation relative to untreated control cells ([3]; Ercc1−/− or wild-type MEF) | toxicity ([3]; 48 hours) | peroxidation of phosphatidylcholine (PC) (rat ileal mucosa) | peroxidation of phosphatidylethanolamine (PE) (rat ileal mucosa) | peroxidation of phosphatidylserine (PS) (rat ileal mucosa) | body weight (Ercc1−/Δ mice) | glycosaminoglycan in intervertebral discs relative to control mice (Ercc1−/Δ mice) | onset of signs of neurodegeneration (dystonia, trembling, ataxia, wasting, urinary incontinence) (Ercc1−/Δ mice) | overall aging score (Ercc1−/Δ mice) | SA-β galactosidase staining ([2]; 500 nM) | amount of apoptosis ([2]; 500 nM) | number of γH2AX foci ([2]; 500 nM)
1 | CC(C)C[C@@H](/C=C/CC(=O)NC1CC(C)(C)N([O])C(C)(C)C1)NC(=O)OC(C)(C)C [JP4-039, TEMPO-4-yl-(S,E)-5-(tert-butoxycarbonylamino)-7-methyloct-3-enamide] | 2.2±0.2 | no significant change | 2.3±0.2 | also effective | much lower | enhanced | no signs of toxicity; also recorded: not toxic | – | – | – | – | – | – | – | – | – | –
2 | CC(C)C[C@@H](/C=C/[C@H](Cc1ccccc1)C(=O)N1CCC[C@H]1C(=O)N[C@H](C(=O)N[C@@H](CCCNC(=O)OCc1ccccc1)C(=O)NC1CC(C)(C)N([O])C(C)(C)C1)C(C)C)NC(=O)OC(C)(C)C [XJB-5-131] | – | – | – | less effective | less effective | – | – | no effect | small effect | no effect | did not lose weight; also recorded: does not cause weight loss | approximately 30 percent more | delayed | significantly improved | notably less | did not reduce the amount of apoptosis | reduce the number of γH2AX foci
